A word on the IC50: it is the concentration that inhibits the measured activity by half.

Our source for the IC50 values is patent publication US11648254B2 (Kumquat Biosciences Inc., priority 2021, dated 2023).

Like-named read-outs stand apart in the source and are kept apart here.

In assay [1] the test system is MIA PaCa-2 cells (K-Ras G12C). Briefly: Ras-SOS cellular growth inhibition assay (CellTiter-Glo, 3D). The following applies: Homo sapiens. It counts as cell-based. The essentials:
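Growth read by CellTiter-Glo luminescence about 5 days after dosing with 3-fold dilutions (9 points), added one day post-seeding. Cells: MIA PaCa-2, 3D culture on ultra-low-attachment surface, medium DMEM/Ham's F12 plus 10% FCS and 2.5% horse serum; IC50 by four-parameter fit.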

A further assay addresses SOS1 (Homo sapiens (Human), UniProt Q07889). Briefly: Ras-SOS interaction assay (HTRF). It counts as biochemical. A general note: TR-FRET usually uses a lanthanide donor and a delayed reading to cut background.
Assay [2] deals with NCI-H1975 cells (EGFR T790M L858R). Briefly: EGFR-SOS cellular inhibition assay (CellTiter-Glo, 3D). It counts as cell-based. The settings on record: Homo sapiens. On the technique in general: In ATP-based viability assays light output follows the ATP content of the culture.
[3] abbreviates: MIA PaCa-2, 120 h, MIA PaCa-2, 3D proliferation, about 5 days, read-out: Bio-Cell-Prolif-3D (MiaPaca2 IC50).
Setting [4] is: K-RasG13D utilized, read-out: IC50 inhibition of SOS.
Where [5] appears, read: K-RasG13D, read-out: IC50 value against SOS1.
The mark [6] stands for this setting: 120 h, NCI-H1975, 3D proliferation, about 5 days, read-out: Bio-Cell-Prolif-3D (H1975 IC50).
Setting [7] is: MIA PaCa-2, MIA PaCa-2, read-out: IC50 in inhibiting MIA PaCa-2 cell growth.
Where [8] appears, read: NCI-H1975, EGFR T790M L858R, read-out: IC50 in inhibiting growth of NCI-H1975 cell line.

Sequence of SOS1 (Q07889 564-1049): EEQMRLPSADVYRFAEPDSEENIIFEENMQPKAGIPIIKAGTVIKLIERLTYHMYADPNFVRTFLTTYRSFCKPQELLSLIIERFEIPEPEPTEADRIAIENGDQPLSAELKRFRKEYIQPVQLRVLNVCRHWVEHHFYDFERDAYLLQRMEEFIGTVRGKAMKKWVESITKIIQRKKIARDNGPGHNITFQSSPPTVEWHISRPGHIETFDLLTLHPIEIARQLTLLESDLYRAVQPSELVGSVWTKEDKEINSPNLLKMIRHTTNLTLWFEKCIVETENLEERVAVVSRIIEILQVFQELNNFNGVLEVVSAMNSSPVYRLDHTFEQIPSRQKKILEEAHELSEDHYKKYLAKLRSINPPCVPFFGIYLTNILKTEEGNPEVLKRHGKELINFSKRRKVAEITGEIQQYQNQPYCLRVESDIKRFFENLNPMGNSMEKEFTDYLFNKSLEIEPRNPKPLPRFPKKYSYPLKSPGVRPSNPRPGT

In the case of `Cc1nc(N[C@H](C)c2cccc(C(F)F)c2F)c2cc(C3CCN(C(C)C)CC3)c(OC3CNC3)nc2n1` [Compound 340, (R)-7-(azetidin-3-yloxy)-N-(1-(3-(difluoromethyl)-2-fluorophenyl)ethyl)-6-(1-isopropylpiperidin-4-yl)-2-methylpyrido[2,3-d]pyrimidin-4-amine], the 50% inhibitory concentration (IC50) in assay [1] (setting [3]) was 1000 to 10000 nM; at SOS1 (setting [4]) it was under 100 nM; at SOS1 (setting [5]), under 50 nM; in assay [2] (setting [6]), 1000 to 10000 nM.
With `Cc1nc(N[C@H](C)c2cccc(C(F)(F)C(C)(C)O)c2F)c2cc(C3(C#N)CC3)c(OC3COC3)nc2n1` [Compound 245, (R)-1-(4-((1-(3-(1,1-difluoro-2-hydroxy-2-methylpropyl)-2-fluorophenyl)ethyl)amino)-2-methyl-7-(oxetan-3-yloxy)pyrido[2,3-d]pyrimidin-6-yl)cyclopropane-1-carbonitrile], the concentration for half-maximal inhibition (IC50) is 1000 to 10000 nM in assay [1] (setting [3]), under 100 nM at SOS1 (setting [4]), under 50 nM at SOS1 (setting [5]) and 1000 to 10000 nM in assay [2] (setting [6]).
With `Cc1c([C@@H](C)Nc2ncnc3nc(Cl)c(N4CCS(=O)(=O)CC4)cc23)cccc1C(F)(F)F` [Compound 328, (R)-4-(7-chloro-4-((1-(2-methyl-3-(trifluoromethyl)phenyl)ethyl)amino)pyrido[2,3-d]pyrimidin-6-yl)thiomorpholine 1,1-dioxide], the IC50 in assay [1] (setting [3]) was at most 1000 nM; in assay [1] (setting [7]), under 500 nM; on SOS1 (setting [4]) it was under 100 nM; on SOS1 (setting [5]), under 50 nM; in assay [2] (setting [6]), at most 1000 nM; in assay [2] (setting [8]), under 500 nM.
Take `COc1nc2nc(C)nc(N[C@H](C)c3cccc(C(F)F)c3F)c2cc1C1CCN(C2CCOCC2)CC1` [Compound 337, (R)-N-(1-(3-(difluoromethyl)-2-fluorophenyl)ethyl)-7-methoxy-2-methyl-6-(1-(tetrahydro-2H-pyran-4-yl)piperidin-4-yl)pyrido[2,3-d]pyrimidin-4-amine]: the concentration for half-maximal inhibition (IC50) in assay [1] (setting [3]) was at most 1000 nM; in assay [1] (setting [7]), under 500 nM; on SOS1 (setting [4]), under 100 nM; at SOS1 (setting [5]), under 50 nM; in assay [2] (setting [6]) it was at most 1000 nM; in assay [2] (setting [8]) it was under 500 nM.
For `CCN1CCN(c2cc3c(N[C@H](C)c4cccc(C(F)(F)F)c4F)nc(C)nc3nc2OC)CC1` [Compound 383, (R)-6-(4-ethylpiperazin-1-yl)-N-(1-(2-fluoro-3-(trifluoromethyl)phenyl)ethyl)-7-methoxy-2-methylpyrido[2,3-d]pyrimidin-4-amine], the IC50 was at most 1000 nM in assay [1] (setting [3]); under 500 nM in assay [1] (setting [7]); under 100 nM on SOS1 (setting [4]); under 50 nM on SOS1 (setting [5]); at most 1000 nM in assay [2] (setting [6]); under 500 nM in assay [2] (setting [8]).
For `COc1nc2nc(C)nc(N[C@H](C)c3cccc(C(F)F)c3F)c2cc1C1CCN(C)CC1` [Compound 113, (R)-N-(1-(3-(difluoromethyl)-2-fluorophenyl)ethyl)-7-methoxy-2-methyl-6-(1-methylpiperidin-4-yl)pyrido[2,3-d]pyrimidin-4-amine], the IC50 in assay [1] (setting [3]) is at most 1000 nM; in assay [1] (setting [7]), under 500 nM; on SOS1 (setting [4]), under 100 nM; at SOS1 (setting [5]), under 50 nM; in assay [2] (setting [6]), at most 1000 nM; in assay [2] (setting [8]), under 500 nM.
Regarding `COc1nc2nc(C)nc(N[C@H](C)c3cccc(C(F)(F)CO)c3)c2cc1N1CCN(C(C)C)CC1` [Compound 345, (R)-2,2-difluoro-2-(3-(1-((6-(4-isopropylpiperazin-1-yl)-7-methoxy-2-methylpyrido[2,3-d]pyrimidin-4-yl)amino)ethyl)phenyl)ethan-1-ol], the half-inhibitory concentration (IC50) in assay [1] (setting [3]) is at most 1000 nM; in assay [1] (setting [7]), under 500 nM; at SOS1 (setting [4]), under 100 nM; at SOS1 (setting [5]) it was under 50 nM; in assay [2] (setting [6]) it was at most 1000 nM; in assay [2] (setting [8]), under 500 nM.
Regarding `Cc1nc(N[C@H](C)c2cccc(C(F)F)c2F)c2cc(C3CCS(=O)(=O)CC3)c(OCCO)nc2n1` [Compound 137, (R)-4-(4-((1-(3-(difluoromethyl)-2-fluorophenyl)ethyl)amino)-7-(2-hydroxyethoxy)-2-methylpyrido[2,3-d]pyrimidin-6-yl)tetrahydro-2H-thiopyran 1,1-dioxide], the half-inhibitory concentration (IC50) in assay [1] (setting [3]) is at most 1000 nM; in assay [1] (setting [7]) it was under 500 nM; on SOS1 (setting [4]), under 100 nM; on SOS1 (setting [5]), under 50 nM; in assay [2] (setting [6]) it was at most 1000 nM.
In the case of `Cc1nc(N[C@H](C)c2cccc(C(F)(F)F)c2C)c2cc(C3CCN(C(C)C)CC3)c(Cl)nc2n1` [Compound 392, (R)-7-chloro-6-(1-isopropylpiperidin-4-yl)-2-methyl-N-(1-(2-methyl-3-(trifluoromethyl)phenyl)ethyl)pyrido [2,3-d]pyrimidin-4-amine], the IC50 in assay [1] (setting [3]) was at most 1000 nM; in assay [1] (setting [7]), under 500 nM; on SOS1 (setting [4]), under 100 nM; on SOS1 (setting [5]) it was under 50 nM; in assay [2] (setting [6]), at most 1000 nM; in assay [2] (setting [8]) it was under 500 nM.
Take `COCCOc1nc2nc(C)nc(N[C@H](C)c3cccc(C(F)F)c3F)c2cc1C1CCS(=O)(=O)CC1` [Compound 157, (R)-4-(4-((1-(3-(difluoromethyl)-2-fluorophenyl)ethyl)amino)-7-(2-methoxyethoxy)-2-methylpyrido[2,3-d]pyrimidin-6-yl)tetrahydro-2H-thiopyran 1,1-dioxide]: the 50% inhibitory concentration (IC50) was at most 1000 nM in assay [1] (setting [3]); under 500 nM in assay [1] (setting [7]); under 100 nM on SOS1 (setting [4]); under 50 nM on SOS1 (setting [5]); at most 1000 nM in assay [2] (setting [6]); under 500 nM in assay [2] (setting [8]).
On to `COc1nc2nc(C)nc(N[C@H](C)c3cccc(C(F)(F)F)c3F)c2cc1N1CCN(C(=O)CN(C)C)CC1` [Compound 312, (R)-2-(dimethylamino)-1-(4-(4-((1-(2-fluoro-3-(trifluoromethyl)phenyl)ethyl)amino)-7-methoxy-2-methylpyrido[2,3-d]pyrimidin-6-yl)piperazin-1-yl)ethan-1-one], for which the IC50 in assay [1] (setting [3]) is at most 1000 nM; in assay [1] (setting [7]), under 500 nM; at SOS1 (setting [4]), under 100 nM; at SOS1 (setting [5]), under 50 nM; in assay [2] (setting [6]), at most 1000 nM; in assay [2] (setting [8]), under 500 nM.
Consider `Cc1nc(N[C@H](C)c2cccc(C(F)F)c2F)c2cc(C3CCS(=O)(=O)CC3)c(OC3COC3)nc2n1` [Compound 229, (R)-4-(4-((1-(3-(difluoromethyl)-2-fluorophenyl)ethyl)amino)-2-methyl-7-(oxetan-3-yloxy)pyrido[2,3-d]pyrimidin-6-yl)tetrahydro-2H-thiopyran 1,1-dioxide], for which the IC50 in assay [1] (setting [3]) was at most 1000 nM; on SOS1 (setting [4]), under 100 nM; on SOS1 (setting [5]) it was under 50 nM; in assay [2] (setting [6]), at most 1000 nM.
As to `CCN1CCC(c2cc3c(N[C@H](C)c4cccc(C(F)F)c4F)nc(C)nc3nc2OC2CN(C)C2)CC1` [Compound 318], the IC50 in assay [1] (setting [3]) is at most 1000 nM; at SOS1 (setting [4]), under 100 nM; on SOS1 (setting [5]), under 50 nM; in assay [2] (setting [6]), at most 1000 nM.
Regarding `COc1nc2nc(C)nc(N[C@H](C)c3cccc(C(F)F)c3F)c2cc1[C@H]1CCCN(C)C1` [Compound 135, N-((R)-1-(3-(difluoromethyl)-2-fluorophenyl)ethyl)-7-methoxy-2-methyl-6-((R)-1-methylpiperidin-3-yl)pyrido[2,3-d] pyrimidin-4-amine], the IC50 in assay [1] (setting [3]) was at most 1000 nM; on SOS1 (setting [4]), under 100 nM; on SOS1 (setting [5]), under 50 nM; in assay [2] (setting [6]) it was at most 1000 nM.
